In one test the target is human JAK3 (Homo sapiens (Human), UniProt P52333). The experiment in a line: JAK3 kinase inhibitory activity, ADP Glo assay. The settings on record: read-out: JAK3 IC50, recombinant human JAK3, ATP 5 uM.
A further test concerns the target human BTK (Homo sapiens (Human), UniProt Q06187). The test is described as follows: BTK kinase inhibitory activity, ADP Glo assay. The settings on record: read-out: BTK IC50, recombinant human BTK, ATP 10 uM.
The next test relates to JAK3. The experiment in a line: JAK3-mediated cell assay (HT-2/IL-2 assay), STAT5 phosphorylation. The class given is cell-based. The settings on record: HT2; STAT5 phosphorylation induced by IL-2 (20 ng/ml) in HT-2 cells, HTRF. How it is done: The inhibitory activities against JAK3 kinase at the cellular level were measured for the compounds prepared in the Examples through in vitro analysis of STAT5 phosphorylation induced by IL-2 stimulation in HT-2 cells. Specifically, STAT5 phosphorylation was analyzed using HTRF® phospho-STAT5 (Tyr694) assay kit (Cisbio, 64AT5PEG), which was purchased from Cisbio. HT-2 cells were cultured for 2 hours in growth factor-free medium. The cultured HT-2 cells were dispensed into 96-well plates by 50 ul so as to be a density of 2.5×10^5 cells/well. The compounds prepared in the previous Examples were prepared so as to be finally a 0.3% DMSO aqueous solution, and HT-2 cells was treated with the compounds for 30 minutes. After the compound treatment, IL-2 was prepared so as to be finally a concentration of 20 ng/ml, and HT-2 cells was treated for 10 minutes. The cells were then disrupted by treating lysis buffers for 30 minutes. The level of STAT5 phosphorylation was measured according to the instructions of HTRF® phospho-STAT5 assay kit, and the inhibitory activity of the compounds according to the invention was calculated. For the analysis of the results of each compound, Microsoft Excel was used, and IC50 values were calculated by SigmaPlot software.

The structures appear in SMILES notation.

Sequence of human JAK3 (P52333 whole entry): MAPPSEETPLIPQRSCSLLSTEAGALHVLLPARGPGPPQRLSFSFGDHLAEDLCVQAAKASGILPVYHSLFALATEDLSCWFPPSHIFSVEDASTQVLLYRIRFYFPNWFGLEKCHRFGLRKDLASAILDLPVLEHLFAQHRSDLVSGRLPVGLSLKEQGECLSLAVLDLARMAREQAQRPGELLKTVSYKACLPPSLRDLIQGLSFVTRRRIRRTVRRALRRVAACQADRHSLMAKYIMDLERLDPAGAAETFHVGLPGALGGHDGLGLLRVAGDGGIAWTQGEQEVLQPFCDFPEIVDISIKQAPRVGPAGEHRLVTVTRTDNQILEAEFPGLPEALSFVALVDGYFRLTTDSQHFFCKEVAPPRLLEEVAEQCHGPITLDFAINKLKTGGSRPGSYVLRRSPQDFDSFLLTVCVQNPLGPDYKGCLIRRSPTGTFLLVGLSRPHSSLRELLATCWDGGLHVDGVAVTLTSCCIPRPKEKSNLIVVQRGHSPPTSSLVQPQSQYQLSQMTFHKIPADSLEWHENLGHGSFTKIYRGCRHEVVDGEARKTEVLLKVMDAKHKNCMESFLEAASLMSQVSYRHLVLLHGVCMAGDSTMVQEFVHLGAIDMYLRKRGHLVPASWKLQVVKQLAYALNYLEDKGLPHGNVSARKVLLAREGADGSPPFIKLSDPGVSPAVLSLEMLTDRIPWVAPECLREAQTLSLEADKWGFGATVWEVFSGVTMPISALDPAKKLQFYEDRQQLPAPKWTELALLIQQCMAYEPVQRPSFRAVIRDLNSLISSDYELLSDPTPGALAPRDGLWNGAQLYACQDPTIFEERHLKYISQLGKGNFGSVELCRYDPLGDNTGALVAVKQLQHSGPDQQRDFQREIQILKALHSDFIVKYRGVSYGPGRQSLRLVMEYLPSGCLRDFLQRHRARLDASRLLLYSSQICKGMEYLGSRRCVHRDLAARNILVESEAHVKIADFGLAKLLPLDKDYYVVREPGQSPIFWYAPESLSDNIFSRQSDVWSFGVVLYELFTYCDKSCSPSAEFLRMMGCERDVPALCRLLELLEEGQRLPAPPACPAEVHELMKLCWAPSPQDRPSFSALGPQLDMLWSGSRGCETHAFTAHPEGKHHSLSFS
Sequence of human BTK (Q06187 whole entry): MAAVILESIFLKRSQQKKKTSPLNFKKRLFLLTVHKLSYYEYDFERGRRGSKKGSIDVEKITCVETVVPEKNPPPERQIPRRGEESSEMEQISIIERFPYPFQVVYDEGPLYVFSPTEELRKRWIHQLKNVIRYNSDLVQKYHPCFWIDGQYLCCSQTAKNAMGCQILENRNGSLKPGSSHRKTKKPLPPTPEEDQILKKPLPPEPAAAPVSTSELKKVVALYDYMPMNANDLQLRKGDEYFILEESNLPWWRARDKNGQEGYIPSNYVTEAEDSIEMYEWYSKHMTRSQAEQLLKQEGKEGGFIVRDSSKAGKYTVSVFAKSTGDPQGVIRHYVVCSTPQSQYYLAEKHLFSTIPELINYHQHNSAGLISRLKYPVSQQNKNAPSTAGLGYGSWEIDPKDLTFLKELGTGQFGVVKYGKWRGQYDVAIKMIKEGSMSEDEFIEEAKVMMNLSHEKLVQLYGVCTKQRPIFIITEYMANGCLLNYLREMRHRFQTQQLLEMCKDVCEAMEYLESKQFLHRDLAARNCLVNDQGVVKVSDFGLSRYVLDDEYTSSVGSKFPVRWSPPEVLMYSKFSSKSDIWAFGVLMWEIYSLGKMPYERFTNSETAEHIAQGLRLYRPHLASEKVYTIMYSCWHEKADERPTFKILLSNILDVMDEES

`C=CC(=O)N1C[C@H](Nc2nc(Nc3cnn(CC(C)C)c3)nc3[nH]ccc23)CC[C@@H]1C` [Example 3, 1-((2S,5R)-5-((2-((1-isobutyl-1H-pyrazol-4-yl)amino)-7H-pyrrolo[2,3-d]pyrimidin-4-yl)amino)-2-methylpiperidin-1-yl)prop-2-en-1-one]: the IC50 at human JAK3 was found to be 1.8 nM; at human BTK, 3.5 nM.

With `C=CC(=O)N1C[C@H](Nc2nc(Nc3cnn(C4CC4)c3)nc3[nH]cc(Cl)c23)CC[C@@H]1C` [Example 9, 1-((2S,5R)-5-((5-chloro-2-((1-cyclopropyl-1H-pyrazol-4-yl)amino)-7H-pyrrolo[2,3-d]pyrimidin-4-yl)amino)-2-methylpiperidin-1-yl)prop-2-en-1-one], the 50% inhibitory concentration (IC50) on human JAK3 amounted to 0.3 nM; on human BTK it was 2 nM.

As for `C=CC(=O)N1C[C@H](Nc2nc(Nc3cnsc3)nc3[nH]cc(Cl)c23)CC[C@@H]1C` [Example 6], the results for the IC50 on human JAK3 and at human BTK were 0.6 nM and 3.4 nM, respectively.

For `C=CC(=O)N1C[C@H](Nc2nc(Nc3cnn(CCNC(=O)OC(C)(C)C)c3)nc3[nH]ccc23)CC[C@@H]1C` [Example 5], the IC50 was determined as 1.2 nM on human JAK3 and 5.3 nM at human BTK.

As for `C=CC(=O)N1C[C@H](Nc2nc(Nc3cnn(CC)c3)nc3[nH]cc(Cl)c23)CC[C@@H]1C` [Example 1, 1-((2S,5R)-5-((5-chloro-2-((1-ethyl-1H-pyrazol-4-yl)amino)-7H-pyrrolo[2,3-d]pyrimidin-4-yl)amino)-2-methylpiperidin-1-yl)prop-2-en-1-one], the figures for the IC50 in the test on JAK3, on human JAK3 and at human BTK were 90.9 nM, 0.3 nM and 1.2 nM, respectively.

Consider `C=CC(=O)N1C[C@H](Nc2nc(Nc3cnn(CC(F)F)c3)nc3[nH]cc(Cl)c23)CC[C@@H]1C` [Example 7, 1-((2S,5R)-5-((5-chloro-2-((1-(2,2-difluoroethyl)-1H-pyrazol-4-yl)amino)-7H-pyrrolo[2,3-d]pyrimidin-4-yl)amino)-2-methylpiperidin-1-yl)prop-2-en-1-one], for which the concentration for half-maximal inhibition (IC50) came to 0.3 nM at human JAK3 and 1.6 nM at human BTK.

Regarding `C=CC(=O)N1C[C@H](Nc2nc(Nc3cnn(CC)c3)nc3[nH]ccc23)CC[C@@H]1C` [Example 2, 1-((2S,5R)-5-((2-((1-ethyl-1H-pyrazol-4-yl)amino)-7H-pyrrolo[2,3-d]pyrimidin-4-yl)amino)-2-methylpiperidin-1-yl)prop-2-en-1-one], the IC50 was 360 nM in the test on JAK3, 0.4 nM at human JAK3 and 1.3 nM on human BTK.

In the case of `C=CC(=O)N1C[C@H](Nc2nc(Nc3cnn(C4CCCC4)c3)nc3[nH]ccc23)CC[C@@H]1C` [Example 4, 1-((2S,5R)-5-((2-((1-cyclopentyl-1H-pyrazol-4-yl)amino)-7H-pyrrolo[2,3-d]pyrimidin-4-yl)amino)-2-methylpiperidin-1-yl)prop-2-en-1-one], the IC50 at human JAK3 was 2.2 nM; on human BTK it was 5.4 nM.

`C=CC(=O)N1C[C@H](N(C)c2nc(Nc3cnn(CC)c3)nc3[nH]nc(Cl)c23)CC[C@@H]1C` [Example 11, 1-((2S,5R)-5-((3-chloro-6-((1-ethyl-1H-pyrazol-4-yl)amino)-1H-pyrazolo[3,4-d]pyrimidin-4-yl)(methyl)amino)-2-methylpiperidin-1-yl)prop-2-en-1-one]: the IC50 at human JAK3 turned out to be 5.7 nM; at human BTK it was 0.9 nM.

Source of the values: US11407754B2, “Substituted piperidines as kinase inhibitors” (Daewoong Pharmaceutical Co., Ltd., priority 2017, dated 2022).
